{"source": "patent US8785600B2", "about": "“Anti-GCC antibody molecules and related compositions and methods” (Millennium Pharmaceuticals, Inc., priority 2009, dated 2014)", "key": {"[1]": {"biological_target": "T1, GCC ECD truncation mutants expressed in 293 cells (Homo sapiens, UniProt P25092)", "T1 construct": "Truncation mutants of the GCC ECD were generated (FL mature peptide and 8 truncations); expressed in transfected cells; host or cells: 293 cells (lysates, immunoprecipitation then anti-FLAG western blot)", "T1 sequence (P25092 33-430, stated change not applied)": "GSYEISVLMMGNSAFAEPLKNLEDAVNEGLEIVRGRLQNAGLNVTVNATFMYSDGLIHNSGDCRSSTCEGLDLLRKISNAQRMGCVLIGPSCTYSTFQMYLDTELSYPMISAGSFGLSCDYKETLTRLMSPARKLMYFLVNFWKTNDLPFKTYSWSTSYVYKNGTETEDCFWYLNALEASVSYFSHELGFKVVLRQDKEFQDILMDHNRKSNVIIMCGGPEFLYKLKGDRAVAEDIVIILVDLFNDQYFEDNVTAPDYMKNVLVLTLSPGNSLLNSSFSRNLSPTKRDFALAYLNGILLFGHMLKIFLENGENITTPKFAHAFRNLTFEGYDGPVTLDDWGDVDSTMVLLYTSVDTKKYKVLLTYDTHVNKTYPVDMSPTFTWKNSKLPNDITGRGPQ", "assay": "Binding to GCC ECD truncation mutants (IP / Western blot)", "conditions": "Δ1-32"}, "[2]": {"system": "GCC-ECD-Fc (TOK107-hIg)", "sequence (as listed by the source)": "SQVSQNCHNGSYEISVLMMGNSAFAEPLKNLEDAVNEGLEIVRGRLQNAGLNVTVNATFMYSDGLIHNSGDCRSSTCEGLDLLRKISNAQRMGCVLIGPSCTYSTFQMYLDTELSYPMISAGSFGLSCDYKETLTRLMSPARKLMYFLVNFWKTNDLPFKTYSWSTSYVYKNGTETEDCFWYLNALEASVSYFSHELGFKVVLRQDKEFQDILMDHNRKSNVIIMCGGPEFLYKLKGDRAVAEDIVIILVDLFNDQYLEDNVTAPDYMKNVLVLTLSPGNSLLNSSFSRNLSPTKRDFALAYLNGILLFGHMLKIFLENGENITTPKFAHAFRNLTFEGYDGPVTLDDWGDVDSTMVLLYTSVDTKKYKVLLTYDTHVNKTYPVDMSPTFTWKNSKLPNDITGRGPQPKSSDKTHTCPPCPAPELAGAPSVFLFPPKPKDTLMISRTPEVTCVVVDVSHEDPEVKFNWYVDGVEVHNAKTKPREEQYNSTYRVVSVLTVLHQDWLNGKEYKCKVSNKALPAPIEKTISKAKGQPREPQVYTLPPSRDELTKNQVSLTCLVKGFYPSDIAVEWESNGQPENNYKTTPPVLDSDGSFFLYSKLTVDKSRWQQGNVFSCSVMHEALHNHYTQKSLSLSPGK", "assay": "BIACORE T100 affinity measurement", "format": "binding, human", "conditions": "for ka (M^−1s^−1) / kd (s^−1): Avg. (95% Conf. Int.); for ka / kd: single replicates, immobilized mAb, 22° C.", "procedure": "Step 1: MAb 5F9 (Prep A) was diluted to 20 μg/mL in 10 mM sodium acetate, pH 4.0 and Reference 5F9 MAb (Prep B) was diluted to 10 μg/mL in 10 mM sodium acetate, pH 4.0. Each mAb was covalently immobilized to several CM4 BIACORE chips using standard amine coupling. For each CM4 chip prepared, Prep A 5F9 was immobilized over two flow cells at around 75-100 RU while Prep B 5F9 was immobilized to one flow cell at around 70-80 RU. The remaining fourth flow cell of each CM4 chip was used as the reference flow cell.\nStep 2: The stock concentration of GCC-ECD-Fc (TOK107-hIg) was determined using the methods detailed by Pace et al. in Protein Science, 4:2411 (1995), and Pace and Grimsley in Current Protocols in Protein Science 3.1.1-3.1.9 (2003).\nStep 3: For each prepared CM4 chip described in Step 1, GCC-ECD-Fc was injected for 2 minutes at a concentration range of 202 nM-1.6 nM (2× serial dilution) followed by a 7 minute dissociation. Samples were randomly injected in triplicate with several buffer inject cycles interspersed for double referencing. […] A flow rate of 100 μL/min was used for all experiments and all surfaces were regenerated with a 20 second pulse of 10 mM Glycine-HCl (pH 2.0). All samples were prepared in the running buffer which was Hepes-buffered saline, 0.005% polysorbate 20, pH 7.4 (HBS-P) with 100 μg/mL of BSA added.\nStep 4: All sensorgram (plot of surface plasmon resonance vs time) data were processed with Scrubber 2.0 software (BioLogic Software, Campbell, Australia) and globally fit to a 1:1 interaction model including a term for the mass transport constant km using CLAMP™ software (Myszka and Morton Trends Biochem. Sci. 23:149-150 (1998)).\nThe 1:1 model provided a very good fit to the data as long as the mAb immobilization levels were kept low enough so that the Rmax resulting from the global analysis of the sensorgram data was at least below 12 RU for each surface. […] Data from two flow cells of GCC-ECD-Fc binding to Prep A 5F9 from the same CM4 chip were simultaneously fit whenever possible, however. […] This isn't surprising due to the fact that GCC-ECD-Fc is a bivalent construct and a higher surface density of immobilized mAb most likely increases the probability that the GCC-ECD-Fc binds avidly to the surface. Replicates reported for this study include only those data that fit well to the 1:1 interaction model. The resulting KD's and rate constants of all replicates for Prep A 5F9 and the Prep B reference mAb are listed in Table 9 and Table 10, respectively."}}, "note": "Where “and” joins values, the source holds several entries; their conditions need not be identical. Equal entries are not always repeated.", "data": [{"substance": "5F9: Human anti-GCC mAb (IgG2, kappa) of hybridoma 5F9, ATCC PTA-8132; VH SEQ ID NO:18, VL SEQ ID NO:20; also engineered as IgG1", "values": [{"measurement": "Binding to GCC ECD truncation mutant", "setting": "[1]", "value": "binds cells with the Δ1-32 mutation"}, {"measurement": "ka (M^−1s^−1)", "setting": "[2]; listed as Prep A 5F9", "value": "1.10 (0.13) × 10^5 M^−1s^−1"}, {"measurement": "kd (s^−1)", "setting": "[2]; listed as Prep A 5F9", "value": "1.46 (0.59) × 10^−5 s^−1"}, {"measurement": "ka (M^−1s^−1)", "setting": "[2]; listed as Prep B 5F9", "value": "1.07 (0.25) × 10^5 M^−1s^−1"}, {"measurement": "kd (s^−1)", "setting": "[2]; listed as Prep B 5F9", "value": "1.13 (0.54) × 10^−5 s^−1"}, {"measurement": "ka", "setting": "[2]; listed as Prep A 5F9", "value": "96400 M⁻¹ s⁻¹ and 106000 M⁻¹ s⁻¹ and 120000 M⁻¹ s⁻¹ and 107000 M⁻¹ s⁻¹ and 122000 M⁻¹ s⁻¹"}, {"measurement": "kd", "setting": "[2]; listed as Prep A 5F9", "value": "1.77e-05 s⁻¹ and 1.19e-05 s⁻¹ and 1.1e-05 s⁻¹ and 2.15e-05 s⁻¹ and 1.11e-05 s⁻¹"}, {"measurement": "ka", "setting": "[2]; listed as Prep B 5F9", "value": "96800 M⁻¹ s⁻¹ and 120000 M⁻¹ s⁻¹ and 90900 M⁻¹ s⁻¹ and 121000 M⁻¹ s⁻¹"}, {"measurement": "kd", "setting": "[2]; listed as Prep B 5F9", "value": "7.64e-06 s⁻¹ and 1.24e-05 s⁻¹ and 9.57e-06 s⁻¹ and 1.54e-05 s⁻¹"}]}]}
